Results: publication PMC6155662, “Trypanocidal Activity of Quinoxaline 1,4 Di-N-oxide Derivatives as Trypanothione Reductase Inhibitors” (Molecules : A Journal of Synthetic Chemistry and Natural …, 2017)
Like-named read-outs stand apart in the source and are kept apart here.

How the values were obtained:
[1] = test system: T. cruzi INC-5 epimastigotes; assay: Viability (MTT) assay on T. cruzi epimastigotes; assay type: cell-based, Trypanosoma cruzi; conditions: 24 h, mean and SD of triplicate
Procedure: In this study, two strains of T. cruzi isolated in Mexico were used. […] Epimastigotes were cultured in vitro in liver infusion-tryptose (LIT) medium supplemented with 10% heat inactivated fetal bovine serum (FBS) (Gibco) and 100 U/mL penicillin-streptomycin (In vitro S.A.), and incubated at 27 °C. CD1 mice, aged 6–8 weeks, were infected with T. cruzi to obtain bloodstream trypomastigote samples.
Viability assays of T. cruzi epimastigotes using 3-(4,5-dimethylthiazol-2-yl)-2,5-diphenyltetrazolium bromide (MTT) were performed. Briefly, the parasites were harvested during the exponential growth phase for a period of five days. In a 96-well microplate 1x10^6 epimastigotes were deposited in brain-heart infusion (BHI) medium supplemented with 10% FBS and 100 U/mL antibiotic-antifungal mixture (Gibco). […] Each well reached a final volume of 100 µL. Each condition was assessed in triplicate. The microplate was incubated for 24 h at 27 °C in darkness. Afterwards, 10 μL of a 5 mg/mL MTT solution was added and the plate was incubated for 20 h at 27 °C. Then 200 μL of 10% dodecyl sulfate (SDS)/0.1% HCl solution was added to dissolve formazan salts; the plate was incubated an additional 4 h. Finally, the plate was read at 570 nm in a spectrophotometer (Multiskan EX Thermo Electron, Taipei, Taiwan). The amount of viable cells was proportional to the amount of formazan produced. […] Later the results were converted to micromolar units. […] As a […] control, parasites were incubated only in culture medium with a 1% DMSO concentration, corresponding to the highest sample dilution of DMSO [34, 35, 36].

[2] = molecular target: T1, recombinant T. cruzi TR (Trypanosoma cruzi, UniProt P28593); assay: TR enzyme inhibition (NADPH consumption at 340 nm); assay type: biochemical; conditions: for inhibition at 5 µM: inhibitor 5 µM; for inhibition at 10 µM: inhibitor 10 µM; for inhibition at 20 µM: inhibitor 20 µM; for inhibition at 40 µM: inhibitor 40 µM; for inhibition at 60 µM: inhibitor 60 µM; for inhibition at 80 µM: inhibitor 80 µM, T-085 precipitates in the assay at 80 µM
T1 construct: made in house
T1 sequence (P28593 whole entry): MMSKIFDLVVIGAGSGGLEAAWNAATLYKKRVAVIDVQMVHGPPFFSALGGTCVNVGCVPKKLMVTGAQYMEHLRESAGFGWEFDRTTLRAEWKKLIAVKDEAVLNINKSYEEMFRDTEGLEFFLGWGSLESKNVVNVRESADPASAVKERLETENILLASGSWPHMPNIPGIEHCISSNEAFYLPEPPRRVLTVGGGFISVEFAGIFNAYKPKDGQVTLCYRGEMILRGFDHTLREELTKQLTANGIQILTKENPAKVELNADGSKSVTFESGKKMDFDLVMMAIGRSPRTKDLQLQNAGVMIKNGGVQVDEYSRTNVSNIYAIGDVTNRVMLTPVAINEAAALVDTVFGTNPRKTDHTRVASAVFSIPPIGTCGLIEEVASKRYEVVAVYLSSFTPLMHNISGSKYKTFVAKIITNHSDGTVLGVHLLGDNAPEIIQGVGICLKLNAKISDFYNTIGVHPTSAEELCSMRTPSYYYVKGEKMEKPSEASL
Procedure: (§1) Trypanothione disulfide (TS2) and recombinant T. cruzi TR were prepared following published procedures. Recombinant human glutathione reductase (GR) was kindly provided by Dr. Heiner Schirmer, Heidelberg Germany. Stock solutions (5 mM) of the inhibitors were prepared in DMSO. The kinetic analyses were conducted using a Jasco V650 spectrophotometer. All enzymatic tests were performed in polystyrene optical cuvettes (10 × 4 × 45 mm). TR activity was measured at 25 °C in a total volume of 1 mL TR assay buffer (40 mM HEPES, 1 mM EDTA, pH 7.5 [47]) containing 100 μM NADPH and 5–10 mU enzyme in the absence and presence of the inhibitor. Each assay contained a total of 5% DMSO. The reaction was started by adding TS2 and NADPH consumption was followed at 340 nm.
Five compound concentrations were used ranging from 100–5 μM. All measurements were performed twice in three independent series. Enzyme activity was plotted versus increasing inhibitor concentrations. IC50 values were calculated using the four-parameter equation model 205 and the option “unlock” from the XLfit add-in (IDBS, Guildford, United Kingdom) for Excel (Microsoft Corporation, Redmond, WA, USA).
The type of inhibition and the inhibitor constants were derived from Lineweaver-Burk plot. The activity of TR was measured in the absence and presence of two to three constant concentrations of inhibitor varying the concentration of TS2 (20, 40, 60, 100 and 200 µM). The inhibitory constant Ki was calculated from the direct plot using nonlinear least-squares data fitting in Excel spreadsheet.

[3] = molecular target: T2, recombinant human glutathione reductase (GR) (Homo sapiens, UniProt P00390); assay: GR enzyme inhibition (NADPH consumption at 340 nm); assay type: biochemical; conditions: inhibitor 5-60 μM; 100 µM GSSG; read-out: IC50 against hGR
T2 sequence (P00390 44-522): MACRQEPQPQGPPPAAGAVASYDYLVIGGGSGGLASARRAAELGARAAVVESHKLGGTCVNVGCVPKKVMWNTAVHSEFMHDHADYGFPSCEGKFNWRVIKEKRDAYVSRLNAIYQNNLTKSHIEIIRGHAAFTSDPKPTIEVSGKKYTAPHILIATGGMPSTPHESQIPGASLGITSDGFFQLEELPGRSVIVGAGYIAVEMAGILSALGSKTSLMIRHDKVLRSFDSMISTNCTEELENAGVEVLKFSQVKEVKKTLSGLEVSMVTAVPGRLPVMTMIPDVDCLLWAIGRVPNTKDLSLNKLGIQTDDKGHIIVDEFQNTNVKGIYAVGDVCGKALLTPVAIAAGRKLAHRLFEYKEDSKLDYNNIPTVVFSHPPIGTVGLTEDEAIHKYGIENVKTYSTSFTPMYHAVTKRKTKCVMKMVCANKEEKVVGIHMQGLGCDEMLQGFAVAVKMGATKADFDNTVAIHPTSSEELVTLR
Procedure: as §1
GR activity was measured at 25 °C in a total volume of 1 mL GR assay buffer (20.5 mM KH2PO4, 26.5 mM K2HPO4, 200 mM KCl, 1 mM EDTA, pH 6.9). The assays contained 100 µM NADPH and 5–10 mU GR and varying concentrations of the inhibitor. The reaction was started by adding 100 µM GSSG and the absorption decrease was followed at 340 nm.
Five compound concentrations were used ranging from 100–5 μM. […] IC50 values were calculated using the four-parameter equation model 205 and the option “unlock” from the XLfit add-in (IDBS, Guildford, United Kingdom) for Excel (Microsoft Corporation, Redmond, WA, USA).

[4] = Cytotoxicity assay (Alamar Blue) on macrophages; assay type: cell-based, murine; conditions: mouse, J774A.1 macrophages, mean and SD of triplicate
Procedure: The murine macrophage cell line J774.A1 was maintained in culture flasks with RPMI 1640 medium supplemented with 10% FBS, 1% MEM-NEAA medium (Gibco) and 100 U/mL antibiotic-antifungal mixture (Gibco). Cells were incubated at 37 °C with 5% CO2 and humidity. Trypsinized J774.A1 macrophages were washed and viability was assessed by the trypan blue dye (Sigma-Aldrich, Toluca, Edo de Mexico, Mexico) exclusion assay. In a 96-well microplate, 50,000 macrophages were seeded per well and a dose-response assay was performed. Compounds were evaluated using six-fold serial dilutions ranging from 100 µg/mL to 0.3 µg/mL of final concentration. Each compound was tested in triplicate. After 20 h incubation, Alamar Blue was added (10% v/v) and cells were incubated for an additional 4 h period. Results were obtained as previously described and CC50 was calculated. As a negative control of cytotoxicity, cells were incubated only in the presence of 0.1% DMSO [39, 40].

[5] = 40 µM TS2, read-out: % Inhibition of TR at 40 µM [TS2]
[6] = 100 µM TS2, read-out: % Inhibition of TR at 100 µM [TS2]

IC50 [1]: 2.42 ± 0.5 µM
IC50 ([1]; Trypanosoma cruzi): < 2.5 µM
type of inhibition ([2]; TcTR, Lineweaver-Burk plot): non-competitive inhibitor
Ki ([2]; TcTR, Lineweaver-Burk plot, inhibitor 15 and 50 µM, TS2 20-200 µM): 35 µM
inhibition at 5 µM [2, 5]: 20.3%
inhibition at 5 µM [2, 6]: 15.2%
inhibition at 10 µM [2, 5]: 34.1%
inhibition at 10 µM [2, 6]: 24.7%
inhibition at 20 µM [2, 5]: 45.7%
inhibition at 20 µM [2, 6]: 36.1%
inhibition at 40 µM [2, 5]: 55.1%
inhibition at 40 µM [2, 6]: 48.1%
inhibition at 60 µM ([2]; the highest concentration that could be measured, 100 μM or 40 μM TS2, read-out: % inhibition of TR): 60%
inhibition at 60 µM [2, 5]: 60.9%
inhibition at 60 µM [2, 6]: 60.1%
inhibition at 80 µM [2, 5]: 44%
inhibition at 80 µM [2, 6]: 33%
IC50 ([2]; inhibitor 5-60 μM, read-out: IC50 against TcTR): 50 µM
IC50 [3]: 50 µM
Structure (SMILES): CC(C)OC(=O)c1ccc2c(c1)[n+]([O-])c(C(=O)C(C)C)c(C(F)(F)F)[n+]2[O-] [Compound T-085, Isopropyl 2-isobutyryl-3-trifluoromethylquinoxaline-7-carboxylate 1,4-di-N-oxide]
CC50 at 24 h [4]: 10.4 ± 0.8 µM
